# Laboratory results: paper PMC9635468, “Biological evaluation, docking studies, and in silico ADME prediction of some pyrimidine and pyridine derivatives as potential EGFR^WT and EGFR^T790M inhibitors” (Journal of Enzyme Inhibition and Medicinal Chemistry, 2022)
# Legend:
# MCF7 = experiment: Cytotoxicity screening, SRB assay, MCF7; type: cell-based, human; details: for MCF7 IC50: 48 h; for IC50: Homo sapiens, MCF7, 48 h
# Procedure: (§1) In this study, a panel of cell lines was examined for their chemosensitivity. Different concentrations of the synthesised pyridines and pyrimidine derivatives were used in this study (5, 12.5, 25, and 50 µg/mL) for all the examined cell lines. In this study, breast tumour cell line (MCF7), hepatocellular carcinoma cell line (HEPG2), larynx cell line (HEP2), lung cancer cell line (H460), colon cancer cell line (HCT116 and Caco2), hypopharyngeal cell line (FADU), and normal Vero cell line were applied. The full methodology is described in the Supplementary data (SI 1).
# (§2) SI 1: Cytotoxicity screening against human cancer cell lines
# (§3) In this study, a panel of cell lines was examined for their chemosensitivity. Different concentrations of the synthesized pyridines and pyrimidines derivatives were used in this study (5, 12.5, 25, and 50 µg/ml) for all the examined cell lines. The most sensitive cell line to the treatment regimen was selected and subjected to further investigations to explore the mechanism of this interaction. Human breast tumor cell line (MCF7), human hepatocellular carcinoma cell line (HEPG2), human larynx cell line (HEP2), human lung cancer cell line (H460), human colon cancer cell line (HCT116 and Caco2), human hypopharyngeal cell line (FaDu), and normal cell line Vero were used in this study. It was obtained from the American Type Culture Collection (ATCC, Minnesota, USA). The tumor cell line was maintained at National Cancer Institute (NCI), Cairo, Egypt.
# (§4) The antitumor activities of pyridines and pyrimidines derivatives and all tested cell lines were evaluated by sulphorhodamine-B (SRB) assay 1. Briefly, cells were seeded at a density of 3 × 10^3 cells/well in 96-well microtiter plates. They were left to attach for 24 h before incubation with drugs. Next, cells were treated with different concentrations of 5, 12.5, 25, and 50 µg/ml for MCF7, HEPG2, HEP2, HCT116, Caco2, H460, FaDu, and Vero cells. For each concentration, three wells were used and incubation was continued for 48 h. DMSO was used as a control vehicle (1 % v/v). At the end of incubation, cells were fixed with 20 % trichloroacetic acid and stained with 0.4 % SRB dye. The optical density (O.D.) of each well was measured spectrophotometrically at 570 nm using an ELISA microplate reader (TECAN sunrise™, Germany). The mean survival fraction at each drug concentration was calculated as follows: […]
# (§5) O.D. of the treated cells/O.D. of the control cells. The IC50 (concentration that produces 50% of cell growth inhibition) value of each drug was calculated using sigmoidal dose-response curve-fitting models (Graph Pad Prizm software, version 5) 1.
# EGFR (T790M) = EGFR (T790M) (Homo sapiens, UniProt P00533, T790M); experiment: EGFR kinase (T790M) inhibition assay, Kinase-Glo MAX
# Sequence of EGFR (T790M) (P00533 25-1210 T790M): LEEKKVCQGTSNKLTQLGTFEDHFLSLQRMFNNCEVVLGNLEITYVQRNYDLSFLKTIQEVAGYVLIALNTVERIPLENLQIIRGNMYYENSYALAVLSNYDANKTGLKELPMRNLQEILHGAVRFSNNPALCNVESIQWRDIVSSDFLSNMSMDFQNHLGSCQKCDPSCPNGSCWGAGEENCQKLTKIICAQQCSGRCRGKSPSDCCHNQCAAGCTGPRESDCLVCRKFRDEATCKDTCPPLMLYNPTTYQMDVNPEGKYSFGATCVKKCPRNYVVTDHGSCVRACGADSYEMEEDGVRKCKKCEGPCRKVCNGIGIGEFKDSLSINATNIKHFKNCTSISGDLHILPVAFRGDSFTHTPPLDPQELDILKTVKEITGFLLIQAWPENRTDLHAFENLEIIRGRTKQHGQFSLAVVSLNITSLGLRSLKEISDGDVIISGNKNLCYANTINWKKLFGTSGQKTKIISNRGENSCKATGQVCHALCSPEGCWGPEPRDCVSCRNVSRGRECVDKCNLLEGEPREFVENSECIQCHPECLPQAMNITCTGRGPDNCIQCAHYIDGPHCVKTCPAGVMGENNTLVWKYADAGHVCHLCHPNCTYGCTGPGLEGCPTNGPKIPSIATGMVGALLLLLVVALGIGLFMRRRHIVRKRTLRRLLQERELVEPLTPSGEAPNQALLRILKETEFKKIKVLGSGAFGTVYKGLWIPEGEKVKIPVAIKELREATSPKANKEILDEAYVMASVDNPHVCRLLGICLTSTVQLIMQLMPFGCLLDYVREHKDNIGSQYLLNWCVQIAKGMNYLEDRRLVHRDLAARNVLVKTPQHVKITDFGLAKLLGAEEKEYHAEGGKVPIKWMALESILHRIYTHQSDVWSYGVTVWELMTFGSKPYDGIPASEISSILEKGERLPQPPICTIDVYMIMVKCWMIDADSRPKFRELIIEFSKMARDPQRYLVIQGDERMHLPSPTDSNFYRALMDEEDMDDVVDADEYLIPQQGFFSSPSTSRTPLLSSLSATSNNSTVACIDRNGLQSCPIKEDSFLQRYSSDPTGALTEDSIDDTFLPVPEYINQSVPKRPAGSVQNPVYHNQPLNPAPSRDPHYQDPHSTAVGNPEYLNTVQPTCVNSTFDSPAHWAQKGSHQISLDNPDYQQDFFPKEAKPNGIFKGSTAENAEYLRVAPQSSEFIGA
# Procedure: (§6) The reagent, Kinase-Glo MAX, was used[50], and luminescence was detected by applying the microplate reader.
# (§7) The assay protocol was carried out by adding 25 μL of the master mixture: (6 μL Kinase assay buffer + 1 μL ATP (500 μM) + 1 μL PTK substrate + 17 μL water) to each well. Thereafter, 5 μL of the inhibitor solution was added to each well labeled as “test inhibitor”. Meanwhile, for the “positive control" and “blank”, 5 μL of the same solution without inhibitor (inhibitor buffer) was added. To the wells designated as "blank", add 20 μL of Kinase assay buffer. The amount of EGFR required for the assay was calculated and the enzyme was diluted to 1 ng/μL with Kinase assay buffer. The reaction was initiated by adding 20 μL of diluted EGFR enzyme to the wells designated as “positive control” and "test inhibitor control". The wells were incubated at 30°C for 40 minutes, then 50 μL of Kinase-Glo Max reagent was added to each well. The plate was incubated at room temperature for 15 minutes and luminescence was measured using the microplate reader.
# HEPG2 cells = experiment: Cell cycle DNA index analysis by flow cytometry; type: cell-based, human; details: HEPG2, 3.8 µg/mL, 48 h; for cells in G2/M phase: control 5.57%; for cells in G0/G1: control 92.7%
# T47D = experiment: Cytotoxicity screening, SRB assay, T47D; type: cell-based, human; details: Homo sapiens, T47D, 48 h
# EGFR (Wild) = EGFR (Wild) (Homo sapiens, UniProt P00533); experiment: EGFR kinase (wild) inhibition assay, Kinase-Glo MAX
# Sequence of EGFR (Wild) (P00533 25-1210): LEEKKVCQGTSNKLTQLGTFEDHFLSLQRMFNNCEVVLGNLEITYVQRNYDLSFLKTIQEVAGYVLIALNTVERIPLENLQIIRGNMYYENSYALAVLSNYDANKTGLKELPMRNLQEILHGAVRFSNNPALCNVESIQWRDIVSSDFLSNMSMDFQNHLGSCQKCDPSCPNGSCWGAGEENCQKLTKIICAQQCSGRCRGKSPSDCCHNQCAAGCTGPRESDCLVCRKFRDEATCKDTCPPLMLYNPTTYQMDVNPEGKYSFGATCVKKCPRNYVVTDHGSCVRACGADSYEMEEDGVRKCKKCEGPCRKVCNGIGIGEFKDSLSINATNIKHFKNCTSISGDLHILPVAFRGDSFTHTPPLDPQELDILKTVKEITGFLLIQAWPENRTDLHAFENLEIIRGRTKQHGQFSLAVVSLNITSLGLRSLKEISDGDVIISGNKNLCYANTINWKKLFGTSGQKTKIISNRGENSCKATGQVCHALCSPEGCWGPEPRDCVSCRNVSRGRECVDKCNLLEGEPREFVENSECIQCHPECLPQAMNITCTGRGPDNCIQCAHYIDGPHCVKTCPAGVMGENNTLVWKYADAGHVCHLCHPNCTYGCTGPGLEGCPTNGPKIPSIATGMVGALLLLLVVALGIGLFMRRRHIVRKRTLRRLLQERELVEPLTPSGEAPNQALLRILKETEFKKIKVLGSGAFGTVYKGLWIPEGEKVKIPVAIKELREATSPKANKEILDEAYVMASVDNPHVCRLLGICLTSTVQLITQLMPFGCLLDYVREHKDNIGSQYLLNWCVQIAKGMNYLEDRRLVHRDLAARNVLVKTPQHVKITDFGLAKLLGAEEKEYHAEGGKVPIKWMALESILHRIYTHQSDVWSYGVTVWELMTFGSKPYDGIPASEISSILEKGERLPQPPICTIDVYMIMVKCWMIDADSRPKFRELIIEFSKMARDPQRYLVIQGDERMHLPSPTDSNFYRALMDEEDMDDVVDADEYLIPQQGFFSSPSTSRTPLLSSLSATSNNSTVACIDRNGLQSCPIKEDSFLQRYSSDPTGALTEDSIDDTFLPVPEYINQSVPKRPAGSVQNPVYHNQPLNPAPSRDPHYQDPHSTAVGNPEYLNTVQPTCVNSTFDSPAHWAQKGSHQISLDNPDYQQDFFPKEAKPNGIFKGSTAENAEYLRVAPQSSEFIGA
# Procedure: as §6, §7
# FADU = experiment: Cytotoxicity screening, SRB assay, FADU; type: cell-based, human; details: 48 h; for IC50: Homo sapiens, FaDu
# Procedure: as §1, §2, §3, §4, §5
# H460 = experiment: Cytotoxicity screening, SRB assay, H460; type: cell-based, human; details: for H460 IC50: 48 h; for IC50: Homo sapiens, NCI-H460, 48 h
# Procedure: as §1, §2, §3, §4, §5
# VERO = experiment: Cytotoxicity screening, SRB assay, normal Vero cells; type: cell-based; details: 48 h, normal cell line; for IC50: Chlorocebus sabaeus, Vero
# Procedure: as §1, §2, §3, §4, §5
# HCT116 = experiment: Cytotoxicity screening, SRB assay, HCT116; type: cell-based, human; details: for HCT116 IC50: 48 h; for IC50: Homo sapiens, HCT-116, 48 h
# Procedure: as §1, §2, §3, §4, §5
# HEPG2 cell line = experiment: Annexin V-FITC apoptosis detection by flow cytometry; type: cell-based, human; details: HEPG2, 3.8 µg/mL, 48 h; control 16.73
# Procedure: Furthermore, both compounds 8 and 14 were evaluated for apoptosis using flow cytometry on the HEPG2 cell line. The % rate of total apoptosis for control, compound 8, and compound 14 were 16.73, 22.44, and 48.36 (%), respectively.
# Liver cancer cells (HEPG2) were seeded in RPMI-1640 media at a density of 250 X 10^3 cells/mL. Both cell cycle and apoptosis evaluations were performed at 3.8 µg/mL for both compounds 8 and 14. The detailed method is described in the Supplementary data (SI 3).
# Annexin V-FITC apoptosis detection kit (Beckman Coulter, California, USA) was used as the manufacturer’s recommendation by using (Beckman Coulter EPICS XL flow cytometer, California, USA). […]
# Cell cycle evaluation was performed at 3.8 µg/mL of both compounds […]. After 48 h, the cells were harvested, stained and DNA content was quantified.
# The most promising cytotoxic compounds (8 and 14) were further assessed for their inhibitory potential against both EGFR Wild and EGFRT T790M. […] The amount of EGFR required for the assay was calculated and the enzyme was diluted to 1 ng/μL with Kinase assay buffer. […] The plate was incubated at room temperature for 15 minutes and luminescence was measured using the microplate reader.
# HEPG2 = experiment: Cytotoxicity screening, SRB assay, HEPG2; type: cell-based, human; details: for HEPG2 IC50: 48 h; for IC50: Homo sapiens, HepG2, 48 h
# Procedure: as §1, §2, §3, §4, §5
# HEP2 = experiment: Cytotoxicity screening, SRB assay, HEP2; type: cell-based, human; details: for HEP2 IC50: 48 h; for IC50: Homo sapiens, HEp-2, 48 h
# Procedure: as §1, §2, §3, §4, §5
IC50 (EGFR (T790M)) [nM],IC50 (EGFR (Wild)) [nM],SMILES,MCF7 IC50 (MCF7) [µg/mL],IC50 (MCF7) [µg/mL],cells in G2/M phase (HEPG2 cells) [%],cells in G0/G1 (HEPG2 cells) [%],IC50 (T47D) [µg/mL],FADU IC50 (FADU) [µg/mL],IC50 (FADU) [µg/mL],H460 IC50 (H460) [µg/mL],IC50 (H460) [µg/mL],IC50 (VERO) [µg/mL],VERO IC50 (VERO) [µg/mL],HCT116 IC50 (HCT116) [µg/mL],IC50 (HCT116) [µg/mL],% rate of total apoptosis (HEPG2 cell line) [%],HEPG2 IC50 (HEPG2) [µg/mL],IC50 (HEPG2) [µg/mL],HEP2 IC50 (HEP2) [µg/mL],IC50 (HEP2) [µg/mL]
27 ± 2,131 ± 8,Oc1n[nH]c2nc(-c3ccco3)cc(-c3cccs3)c12 [Compound 8],4.10,3.8,34.4,61.4,7.5,5.60,3.8,11.70,8.5,4.3,3.90,7.20,4,22.44,3.80,4,7.90,4.4
156 ± 9,203 ± 12,N#Cc1c(-c2cccs2)cc(-c2ccco2)[nH]c1=O [Compound 14],3.70,7,25.9,69.8,4.7,3.90,5.7,8.00,12.5,4,4.60,3.90,7.4,48.36,3.80,3.6,4.70,8
